The text below walks through data of the Kinase Knowledgebase extract (Sharma et al. 2016).

Assay [1] has as its target PIK3CD (Human) (UniProt O00329). The experiment in a line: Cell-Based Assay. The following applies: raji.
Another assay has as its target PIK3CG (human) (UniProt P48736). The experiment in a line: Enzyme Assay.
For assay [2], the target named is PIK3CD (Human) (UniProt O00329). The experiment in a line: Enzyme Assay.
The next assay deals with PIK3CB (Human) (UniProt P42338). The experiment in a line: Enzyme Assay.
Chain of PIK3CB (Human) (P42338 whole entry, looked up): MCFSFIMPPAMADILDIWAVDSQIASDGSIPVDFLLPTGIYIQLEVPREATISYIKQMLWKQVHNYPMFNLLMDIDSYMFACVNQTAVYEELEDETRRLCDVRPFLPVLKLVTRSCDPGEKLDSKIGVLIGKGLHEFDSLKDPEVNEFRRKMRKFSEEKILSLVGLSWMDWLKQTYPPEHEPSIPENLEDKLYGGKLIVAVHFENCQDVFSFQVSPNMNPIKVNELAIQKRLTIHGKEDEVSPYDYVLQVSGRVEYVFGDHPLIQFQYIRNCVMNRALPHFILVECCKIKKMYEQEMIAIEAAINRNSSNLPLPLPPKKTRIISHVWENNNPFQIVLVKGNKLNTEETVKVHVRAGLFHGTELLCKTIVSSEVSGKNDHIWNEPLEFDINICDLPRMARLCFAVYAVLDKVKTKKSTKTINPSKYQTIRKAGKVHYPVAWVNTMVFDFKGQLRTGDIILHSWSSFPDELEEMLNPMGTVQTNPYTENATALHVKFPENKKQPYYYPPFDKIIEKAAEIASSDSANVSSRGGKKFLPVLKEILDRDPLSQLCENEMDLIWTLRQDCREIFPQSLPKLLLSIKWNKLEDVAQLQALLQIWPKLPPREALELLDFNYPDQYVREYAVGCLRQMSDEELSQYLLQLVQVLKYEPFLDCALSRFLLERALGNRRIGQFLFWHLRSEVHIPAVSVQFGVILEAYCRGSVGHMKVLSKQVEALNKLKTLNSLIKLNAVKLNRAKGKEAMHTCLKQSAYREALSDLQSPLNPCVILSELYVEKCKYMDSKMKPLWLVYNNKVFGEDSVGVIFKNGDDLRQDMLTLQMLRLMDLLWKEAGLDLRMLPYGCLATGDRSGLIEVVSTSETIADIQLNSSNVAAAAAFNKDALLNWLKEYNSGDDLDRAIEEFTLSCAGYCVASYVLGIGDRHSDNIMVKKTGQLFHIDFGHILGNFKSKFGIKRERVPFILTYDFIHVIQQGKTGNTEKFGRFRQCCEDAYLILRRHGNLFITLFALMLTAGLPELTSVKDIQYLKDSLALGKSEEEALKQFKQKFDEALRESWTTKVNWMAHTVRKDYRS

Chain of PIK3CD (Human) (O00329 whole entry, looked up): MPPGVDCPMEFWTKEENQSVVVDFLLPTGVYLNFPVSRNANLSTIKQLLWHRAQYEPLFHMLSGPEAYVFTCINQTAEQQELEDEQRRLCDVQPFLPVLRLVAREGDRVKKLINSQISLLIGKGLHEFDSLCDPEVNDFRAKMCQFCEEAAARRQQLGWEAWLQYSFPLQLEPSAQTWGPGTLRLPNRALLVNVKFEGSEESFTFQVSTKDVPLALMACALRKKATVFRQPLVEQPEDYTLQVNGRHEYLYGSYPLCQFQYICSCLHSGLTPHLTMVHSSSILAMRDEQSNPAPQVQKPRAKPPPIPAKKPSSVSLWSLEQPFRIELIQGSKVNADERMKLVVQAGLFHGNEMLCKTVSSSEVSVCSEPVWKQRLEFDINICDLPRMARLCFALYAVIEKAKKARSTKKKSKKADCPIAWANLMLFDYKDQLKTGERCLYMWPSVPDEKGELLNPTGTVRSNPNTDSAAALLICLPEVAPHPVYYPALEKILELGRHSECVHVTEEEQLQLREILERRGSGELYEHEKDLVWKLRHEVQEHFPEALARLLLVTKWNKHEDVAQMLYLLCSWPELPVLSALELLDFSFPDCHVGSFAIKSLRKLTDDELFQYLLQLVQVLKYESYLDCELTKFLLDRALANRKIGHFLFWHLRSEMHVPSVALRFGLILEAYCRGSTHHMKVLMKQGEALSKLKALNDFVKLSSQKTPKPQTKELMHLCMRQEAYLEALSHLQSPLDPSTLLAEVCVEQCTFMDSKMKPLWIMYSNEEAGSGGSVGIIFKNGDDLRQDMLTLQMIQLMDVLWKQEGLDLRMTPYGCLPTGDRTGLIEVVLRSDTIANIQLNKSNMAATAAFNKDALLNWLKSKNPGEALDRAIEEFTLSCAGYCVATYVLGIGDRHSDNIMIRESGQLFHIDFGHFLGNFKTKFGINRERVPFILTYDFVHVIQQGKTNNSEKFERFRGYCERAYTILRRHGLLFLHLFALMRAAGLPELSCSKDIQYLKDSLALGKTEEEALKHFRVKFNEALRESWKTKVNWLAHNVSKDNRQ
Chain of PIK3CG (human) (P48736 whole entry, looked up): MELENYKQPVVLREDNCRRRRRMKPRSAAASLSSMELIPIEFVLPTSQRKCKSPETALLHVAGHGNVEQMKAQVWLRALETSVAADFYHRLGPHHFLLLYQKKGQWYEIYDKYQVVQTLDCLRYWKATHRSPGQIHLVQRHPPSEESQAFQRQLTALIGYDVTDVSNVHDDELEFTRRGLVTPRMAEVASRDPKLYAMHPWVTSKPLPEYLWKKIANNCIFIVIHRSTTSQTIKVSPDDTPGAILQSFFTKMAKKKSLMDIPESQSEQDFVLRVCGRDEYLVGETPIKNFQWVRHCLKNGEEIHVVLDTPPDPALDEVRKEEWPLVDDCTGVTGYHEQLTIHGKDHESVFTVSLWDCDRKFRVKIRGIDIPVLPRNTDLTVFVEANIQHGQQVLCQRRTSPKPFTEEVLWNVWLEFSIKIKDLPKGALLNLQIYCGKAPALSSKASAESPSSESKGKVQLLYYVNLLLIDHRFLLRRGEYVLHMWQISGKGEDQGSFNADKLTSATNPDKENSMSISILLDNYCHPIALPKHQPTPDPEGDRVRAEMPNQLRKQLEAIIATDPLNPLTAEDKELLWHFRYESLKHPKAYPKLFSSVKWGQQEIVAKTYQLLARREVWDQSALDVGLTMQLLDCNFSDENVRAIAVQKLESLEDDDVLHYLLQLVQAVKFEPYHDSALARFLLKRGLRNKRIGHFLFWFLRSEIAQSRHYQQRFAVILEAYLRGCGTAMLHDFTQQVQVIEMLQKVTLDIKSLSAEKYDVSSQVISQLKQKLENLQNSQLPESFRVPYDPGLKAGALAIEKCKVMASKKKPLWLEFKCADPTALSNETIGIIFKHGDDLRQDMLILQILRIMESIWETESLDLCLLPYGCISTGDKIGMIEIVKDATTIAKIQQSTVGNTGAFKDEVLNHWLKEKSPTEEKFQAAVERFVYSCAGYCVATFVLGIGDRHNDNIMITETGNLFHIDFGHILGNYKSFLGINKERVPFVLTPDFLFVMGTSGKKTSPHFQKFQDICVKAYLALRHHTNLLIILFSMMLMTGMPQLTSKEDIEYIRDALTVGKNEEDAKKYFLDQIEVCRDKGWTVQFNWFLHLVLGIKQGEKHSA

`C[C@H](NC(=O)c1c(N)nn2cccnc12)c1cc2cccc(C#Cc3cncs3)c2c(=O)n1-c1ccccc1`: the IC50 against PIK3CD (Human) [1] was 100 to 500 nM; on PIK3CG (human) it was 100 to 500 nM; against PIK3CD (Human) [2], 5000 to 10000 nM; against PIK3CB (Human) it was 5000 to 10000 nM.
As for `C[C@H](NC(=O)c1c(N)nn2cccnc12)c1cc2cccc(C#Cc3nccs3)c2c(=O)n1-c1ccccc1`, the IC50 lay within 100 to 500 nM against PIK3CD (Human) [1], 100 to 500 nM on PIK3CG (human), 5000 to 10000 nM at PIK3CD (Human) [2] and 5000 to 10000 nM against PIK3CB (Human).
Regarding `CC(C)C#Cc1cccc2nc([C@H](C)NC(=O)c3c(N)nn4cccnc34)n(-c3ccccc3)c(=O)c12`, the IC50 lay within 500 to 1000 nM on PIK3CD (Human) [1], 500 to 1000 nM against PIK3CG (human), 5000 to 10000 nM on PIK3CD (Human) [2] and 5000 to 10000 nM on PIK3CB (Human).
For the compound `C[C@H](NC(=O)c1c(N)nn2cccnc12)c1cc2cccc(C#CC3CC3)c2c(=O)n1C1CC1`, the half-inhibitory concentration (IC50) was 100 to 500 nM against PIK3CD (Human) [1], 1000 to 5000 nM at PIK3CG (human), 1000 to 5000 nM on PIK3CD (Human) [2] and 1000 to 5000 nM on PIK3CB (Human).
For `C[C@H](NC(=O)c1c(N)nn2cccnc12)c1cc2cccc(C#Cc3ccccc3)c2c(=O)n1-c1ccccc1`, the IC50 was in the range of 1 to 100 nM at PIK3CD (Human) [1], 1000 to 5000 nM on PIK3CG (human), 1 to 500 nM at PIK3CD (Human) [2] and 5000 to 10000 nM against PIK3CB (Human).
On to `C[C@H](NC(=O)c1c(N)nn2cccnc12)c1cc2cccc(C#Cc3cccnc3)c2c(=O)n1-c1ccccc1`, for which the IC50 at PIK3CD (Human) [1] lay within 100 to 500 nM; against PIK3CG (human), 100 to 500 nM; at PIK3CD (Human) [2] it was 5000 to 10000 nM; against PIK3CB (Human), 5000 to 10000 nM.
For `C[C@H](NC(=O)c1c(N)nn2cccnc12)c1cc2cccc(C#Cc3ccn(C)n3)c2c(=O)n1-c1ccccc1`, the IC50 on PIK3CD (Human) [1] is 100 to 500 nM; at PIK3CG (human) it was 100 to 500 nM; against PIK3CD (Human) [2] it was 5000 to 10000 nM; against PIK3CB (Human), 5000 to 10000 nM.
For `C[C@H](NC(=O)c1c(N)nn2cccnc12)c1cc2cccc(C#C[C@@H](C)O)c2c(=O)n1-c1ccccc1`, the IC50 against PIK3CD (Human) [1] was 100 to 500 nM; against PIK3CG (human), 1 to 100 nM; at PIK3CD (Human) [2], 500 to 1000 nM; against PIK3CB (Human), 5000 to 10000 nM.
For the compound `C[C@H](NC(=O)c1c(N)nn2cccnc12)c1cc2cccc(C#Cc3cscn3)c2c(=O)n1-c1ccccc1`, the IC50 on PIK3CD (Human) [1] was 100 to 500 nM; at PIK3CG (human) it was 1 to 100 nM; against PIK3CD (Human) [2], 1000 to 5000 nM; against PIK3CB (Human), 1000 to 5000 nM.
For `Cc1nc(C#Cc2cccc3nc([C@H](C)NC(=O)c4c(N)nn5cccnc45)n(-c4ccccc4)c(=O)c23)cs1`, the concentration for half-maximal inhibition (IC50) at PIK3CD (Human) [1] fell in the range of 500 to 1000 nM; on PIK3CG (human), 1 to 100 nM; at PIK3CD (Human) [2] it was 5000 to 10000 nM; against PIK3CB (Human) it was 5000 to 10000 nM.
For `C[C@H](NC(=O)c1c(N)nn2cccnc12)c1cc2cccc(C#CC(C)(C)N)c2c(=O)n1-c1ccccc1`, the IC50 at PIK3CD (Human) [1] was in the range of 1000 to 10000 nM; against PIK3CG (human), 500 to 1000 nM; on PIK3CD (Human) [2], 5000 to 10000 nM; on PIK3CB (Human), 5000 to 10000 nM.
As to `C[C@H](NC(=O)c1c(N)nn2cccnc12)c1cc2cccc(C#CCN3CCOCC3)c2c(=O)n1-c1ccccc1`, the half-maximal inhibitory concentration (IC50) against PIK3CD (Human) [1] was 1000 to 10000 nM; on PIK3CG (human), 100 to 500 nM; against PIK3CD (Human) [2] it was 5000 to 10000 nM; on PIK3CB (Human) it was 5000 to 10000 nM.
On to `C[C@H](O)C#Cc1cccc2cc([C@H](C)NC(=O)c3c(N)nn4cccnc34)n(-c3ccccc3)c(=O)c12`, for which the 50% inhibitory concentration (IC50) on PIK3CD (Human) [1] is 100 to 500 nM; against PIK3CG (human) it was 1 to 100 nM; against PIK3CD (Human) [2], 1000 to 5000 nM; at PIK3CB (Human), 1000 to 5000 nM.
`Cc1ncc(C#Cc2cccc3cc([C@H](C)NC(=O)c4c(N)nn5cccnc45)n(-c4ccccc4)c(=O)c23)s1`: the IC50 on PIK3CD (Human) [1] lay within 100 to 500 nM; at PIK3CG (human), 100 to 500 nM; against PIK3CD (Human) [2], 5000 to 10000 nM; against PIK3CB (Human), 5000 to 10000 nM.
`C#Cc1cccc2nc([C@H](C)NC(=O)c3nccnc3N)n(-c3ccc(F)cc3)c(=O)c12`: the 50% inhibitory concentration (IC50) at PIK3CD (Human) [1] was 1 to 100 nM; on PIK3CG (human) it was 1 to 100 nM; against PIK3CD (Human) [2] it was 1000 to 5000 nM; against PIK3CB (Human), 1000 to 5000 nM.
Regarding `C[C@H](NC(=O)c1c(N)nn2cccnc12)c1cc2cccc(C#CCN3CCN(C)CC3)c2c(=O)n1-c1ccccc1`, the IC50 at PIK3CD (Human) [1] lay within 100 to 500 nM; against PIK3CG (human), 100 to 500 nM; on PIK3CD (Human) [2] it was 5000 to 10000 nM; against PIK3CB (Human), 5000 to 10000 nM.
